# Molecular target: His-tagged Human KRAS^G12D (Homo sapiens (Human), UniProt P01116, G12D)
# Assay: HTRF KRAS G12D GTP binding assay
# Details: displacement of GTP-Red tracer
# Protocol: KRAS^G12D was used in this assay.
# The ability of a test compound to bind to KRAS^G12D was measured by using an HTRF KRAS^G12D GTP Binding Kit (Cisbio, 63ADK000CB27PEG). […] 5 μL of compound solution was added to each well after serial dilution, followed by addition of 5 μL of GDP (50 nM) solution. After 30 minutes incubation at room temperature, 1×6His Eu cryptate antibody solution and GTP-Red tracer were added to the plate, then incubated for another 30 minutes. The HTRF signal was measured with a VICTOR Nivo multimode plate reader according to the manufacturer's instructions. The percent inhibition was calculated using the following formula: […]
# (where the “Maximum Signal” are wells containing DMSO without inhibitor; the “Minimum Signal” are wells containing reference inhibitory component (GDP); the “Test compound signal” are wells containing test compound (inhibitor) at established concentrations).
# IC50 was determined by fitting percent inhibition at each inhibitor concentration to the four-parameter nonlinear logistic equation using GraphPad Prism.
# His-tagged Human KRAS^G12D, sequence (P01116-2 other isoform, or with tags, fused parts or gaps G12D): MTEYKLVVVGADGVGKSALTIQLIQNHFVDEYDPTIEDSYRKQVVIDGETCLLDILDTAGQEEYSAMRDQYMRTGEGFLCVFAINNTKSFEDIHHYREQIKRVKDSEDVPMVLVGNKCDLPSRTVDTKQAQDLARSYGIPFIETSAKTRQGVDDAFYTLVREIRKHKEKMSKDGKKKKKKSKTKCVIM
row,SMILES,IC50
1,CCc1c(F)ccc2cc(O)cc(-c3ncc4c(N5CCC6(CCOC6)C5)nc(OC[C@@]56CCCN5C[C@H](F)C6)nc4c3F)c12 (some centres unmarked) [Compound 1a],0.752 µM
2,CCc1c(F)ccc2cc(O)cc(-c3ncc4c(N5CCCC6(CCO6)C5)nc(OC[C@@H]5C[C@@H](F)CN5C)nc4c3F)c12 (some centres unmarked) [Compound 3a],0.141 µM
3,CCc1c(F)ccc2cc(O)cc(-c3ncc4c(N5CCCC6(CCN6)C5)nc(OC[C@@]56CCCN5C[C@H](F)C6)nc4c3F)c12 (some centres unmarked) [Compound 4a],> 1 µM
4,CCc1c(F)ccc2cc(O)cc(-c3ncc4c(N5CCC[C@@H](OC)C5)nc(OC[C@@]56CCCN5C[C@H](F)C6)nc4c3F)c12 [Compound 5a],0.652 µM
5,CCc1c(F)ccc2cc(O)cc(-c3ncc4c(N5CC6(CCO6)C5)nc(OC[C@@]56CCCN5C[C@H](F)C6)nc4c3F)c12 [Compound 6a],> 1 µM
6,CCc1c(F)ccc2cc(O)cc(-c3ncc4c(N5CC6CC(CO)(C6)C5)nc(OC[C@@]56CCCN5C[C@H](F)C6)nc4c3F)c12 [Compound 7a],> 1 µM
7,CCc1c(F)ccc2cc(O)cc(-c3ncc4c(N5CCC[C@H]5C(=O)O)nc(OC[C@@]56CCCN5C[C@H](F)C6)nc4c3F)c12 [Compound 8],> 1 µM
8,CCc1c(F)ccc2cc(O)cc(-c3ncc4c(N5C6CCC5COC6)nc(OC[C@@]56CCCN5C[C@H](F)C6)nc4c3F)c12 [Compound 12],> 1 µM
9,CCc1c(F)ccc2cc(O)cc(-c3ncc4c(N5CC6CCC(C5)O6)nc(OC[C@@]56CCCN5C[C@H](F)C6)nc4c3F)c12 [Compound 13],0.979 µM
10,CCc1c(F)ccc2cc(O)cc(-c3ncc4c(N5CCCC56COC6)nc(OC[C@@]56CCCN5C[C@H](F)C6)nc4c3F)c12 [Compound 14],> 1 µM
11,CCc1c(F)ccc2cc(O)cc(-c3ncc4c(N5C6CCC5CC6)nc(OC[C@@]56CCCN5C[C@H](F)C6)nc4c3F)c12 [Compound 15],> 1 µM
12,CCc1c(F)ccc2cc(O)cc(-c3ncc4c(N5CCC(C)(O)C5)nc(OC[C@@]56CCCN5C[C@H](F)C6)nc4c3F)c12 (some centres unmarked) [Compound 16],> 1 µM
13,CCc1c(F)ccc2cc(O)cc(-c3ncc4c(N5C6CCCC5CC6)nc(OC[C@@]56CCCN5C[C@H](F)C6)nc4c3F)c12 [Compound 17],> 1 µM
14,CCc1c(F)ccc2cc(O)cc(-c3ncc4c(N5CC(C)(O)C5)nc(OC[C@@]56CCCN5C[C@H](F)C6)nc4c3F)c12 [Compound 18],> 10 µM
15,CCc1c(F)ccc2cc(O)cc(-c3ncc4c(N5CCCC5c5ccccc5)nc(OC[C@@]56CCCN5C[C@H](F)C6)nc4c3F)c12 (some centres unmarked) [Compound 19],> 10 µM
16,CCc1c(F)ccc2cc(O)cc(-c3ncc4c(N5CCCC(c6ccccc6)C5)nc(OC[C@@]56CCCN5C[C@H](F)C6)nc4c3F)c12 (some centres unmarked) [Compound 20],> 10 µM
17,CCc1c(F)ccc2cc(O)cc(-c3ncc4c(N5CC(F)(F)C[C@H]5CO)nc(OC[C@@]56CCCN5C[C@H](F)C6)nc4c3F)c12 [Compound 21],> 10 µM
18,CCc1c(F)ccc2cc(O)cc(-c3ncc4c(N5CCC[C@@]5(C)CO)nc(OC[C@@]56CCCN5C[C@H](F)C6)nc4c3F)c12 [Compound 22],> 10 µM
19,CCc1c(F)ccc2cc(O)cc(-c3ncc4c(N5CCC[C@H]5CN)nc(OC[C@@]56CCCN5C[C@H](F)C6)nc4c3F)c12 [Compound 23],1.35 µM

row,SMILES,IC50
1,CCc1c(F)ccc2cc(O)cc(-c3ncc4c(N5CCCC5c5cccnc5)nc(OC[C@@]56CCCN5C[C@H](F)C6)nc4c3F)c12 (some centres unmarked) [Compound 24],> 10 µM
2,CCc1c(F)ccc2cc(O)cc(-c3ncc4c(N5CCCC(Cl)(CCO)C5)nc(OC[C@@]56CCCN5C[C@H](F)C6)nc4c3F)c12 (some centres unmarked) [Compound 26],1.53 µM
3,CCc1c(F)ccc2cc(O)cc(-c3ncc4c(N5C[C@@H]6C[C@@H](O)[C@H]5C6)nc(OC[C@@]56CCCN5C[C@H](F)C6)nc4c3F)c12 [Compound 27],> 10 µM
4,CCc1c(F)ccc2cc(O)cc(-c3ncc4c(NC5CC6(CCC6)C5)nc(OC[C@@]56CCCN5C[C@H](F)C6)nc4c3F)c12 [Compound 28],> 10 µM
5,CCc1c(F)ccc2cc(O)cc(-c3ncc4c(N5CC[C@@H](C(C)(C)O)C5)nc(OC[C@@]56CCCN5C[C@H](F)C6)nc4c3F)c12 [Compound 29],> 10 µM
6,CCc1c(F)ccc2cc(O)cc(-c3ncc4c(N5CCC[C@H]5CN5CCCC5)nc(OC[C@@]56CCCN5C[C@H](F)C6)nc4c3F)c12 [Compound 30],> 10 µM
7,CCc1c(F)ccc2cc(O)cc(-c3ncc4c(N5CCN(C(C)=O)[C@H](C)C5)nc(OC[C@@]56CCCN5C[C@H](F)C6)nc4c3F)c12 [Compound 31],> 10 µM
8,CCc1c(F)ccc2cc(O)cc(-c3ncc4c(N5CC[C@@H](CO)C5)nc(OC[C@@]56CCCN5C[C@H](F)C6)nc4c3F)c12 [Compound 32],> 1 µM
9,CCc1c(F)ccc2cc(O)cc(-c3ncc4c(N5C[C@@H](N)C[C@H]5CO)nc(OC[C@@]56CCCN5C[C@H](F)C6)nc4c3F)c12 [Compound 33],> 1 µM
10,CCc1c(F)ccc2cc(O)cc(-c3ncc4c(N5CCN[C@H](C)C5)nc(OC[C@@]56CCCN5C[C@H](F)C6)nc4c3F)c12 [Compound 34],> 1 µM
11,CCc1c(F)ccc2cc(O)cc(-c3ncc4c(N5C[C@@H]6C[C@H]5CO6)nc(OC[C@@]56CCCN5C[C@H](F)C6)nc4c3F)c12 [Compound 35],> 1 µM
12,CCc1c(F)ccc2cc(O)cc(-c3ncc4c(N5CC6(CC(O)C6)C5)nc(OC[C@@]56CCCN5C[C@H](F)C6)nc4c3F)c12 [Compound 36],> 1 µM
13,CCc1c(F)ccc2cc(O)cc(-c3ncc4c(N5C[C@H]6C[C@@H]5[C@@H](O)C6)nc(OC[C@@]56CCCN5C[C@H](F)C6)nc4c3F)c12 [Compound 37],> 1 µM
14,CCc1c(F)ccc2cc(O)cc(-c3ncc4c(N5CCCC[C@@H](N)C5)nc(OC[C@@]56CCCN5C[C@H](F)C6)nc4c3F)c12 [Compound 38],0.163 µM
15,CCc1c(F)ccc2cc(O)cc(-c3ncc4c(N5CC6CC(C6)C5)nc(OCC5(CN(C)C)CC5)nc4c3F)c12 [Compound 38a],> 1 µM
16,CCc1c(F)ccc2cc(O)cc(-c3ncc4c(N5CCC6(CCCCC6)C5)nc(OC[C@@]56CCCN5C[C@H](F)C6)nc4c3F)c12 [Compound 40],> 1 µM
17,CCc1c(F)ccc2cc(O)cc(-c3ncc4c(N5CCC6(CNC(=O)O6)C5)nc(OC[C@@]56CCCN5C[C@H](F)C6)nc4c3F)c12 (some centres unmarked) [Compound 43],> 1 µM
18,CCc1c(F)ccc2cc(O)cc(-c3ncc4c(N5CC6(CC(=O)C6)C5)nc(OC[C@@]56CCCN5C[C@H](F)C6)nc4c3F)c12 [Compound 44],> 1 µM

# Continued, values first:
row,IC50,SMILES
1,> 1 µM,CCc1c(F)ccc2cc(O)cc(-c3ncc4c(N5CCCC6(CCO6)C5)nc(OC[C@H](C)OC)nc4c3F)c12 (some centres unmarked) [Compound 11a]
2,0.0121 µM,CCc1c(F)ccc2cc(O)cc(-c3ncc4c(N5CCC[C@]6(CCO6)C5)nc(OCC5(CN6CCN(C)CC6)CC5)nc4c3F)c12 [Compound 12a]
3,0.0132 µM,CCc1c(F)ccc2cc(O)cc(-c3ncc4c(N5CCC[C@]6(CCO6)C5)nc(OCC5(CN6CCC6)CC5)nc4c3F)c12 [Compound 13a]
4,> 1 µM,Cc1ccc2[nH]ncc2c1-c1ccc2c(N3CCC[C@]4(CCO4)C3)nc(OCC3(CN(C)C)CC3)nc2c1F [Compound 14a]
5,0.0312 µM,CCc1c(F)ccc2cc(O)cc(-c3ncc4c(N5CCC[C@]6(CCO6)C5)nc(OCC5(CN6CCC7(CCC7)CC6)CC5)nc4c3F)c12 [Compound 23a]
6,0.639 µM,CN(C)CC1(COc2nc(N3CCC[C@]4(CCO4)C3)c3cnc(-c4cc(O)ccc4-c4cccs4)c(F)c3n2)CC1 [Compound 25a]
7,0.159 µM,CCc1c(F)ccc2cc(O)cc(-c3ncc4c(N5CCC[C@]6(CCO6)C5)nc(OCC5(CN6CC(F)(F)C6)CC5)nc4c3F)c12 [Compound 28a]
8,0.0416 µM,CCc1c(F)ccc2cc(O)cc(-c3ncc4c(N5CCC[C@]6(CCO6)C5)nc(OCC5(CN6CCC(F)(F)CC6)CC5)nc4c3F)c12 [Compound 30a]
9,0.518 µM,CCc1c(F)ccc2cc(O)cc(-c3ncc4c(N5CCC[C@]6(CCO6)C5)nc(OCC5(CC(N)=O)CC5)nc4c3F)c12 [Compound 31a]
10,0.481 µM,CCc1c(F)ccc2cc(O)cc(-c3ncc4c(N(C)CC(C)(C)O)nc(OCC5(CN(C)C)CC5)nc4c3F)c12 [Compound 32a]
11,> 1 µM,CN(C)CC1(COc2nc(N3CCC[C@]4(CCO4)C3)c3cnc(-c4ccc(F)c5sc(N)c(C#N)c45)c(F)c3n2)CC1 [Compound 35a]
12,> 1 µM,C#Cc1c(F)ccc2cc(O)cc(-c3ncc4c(N5CC=CCC5)nc(OCC5(CN(C)C)CC5)nc4c3F)c12 [Compound 36a]
13,0.121 µM,CCc1c(F)ccc2cc(O)cc(-c3ncc4c(N5CCC[C@]6(CCO6)C5)nc(OCC5(N(C)C)CC5)nc4c3F)c12 [Compound 37a]
14,> 1 µM,CN(C)CC1(COc2nc(N3CCC[C@]4(CCO4)C3)c3cc(Cl)c(-c4ccc(F)c5sc(N)c(C#N)c45)c(F)c3n2)CC1 [Compound 39a]
15,0.424 µM,CCc1c(F)ccc2cc(O)cc(-c3ncc4c(N5CCCC(OC)CC5)nc(OCC5(CN(C)C)CC5)nc4c3F)c12 (centres unmarked) [Compound 40a]
16,0.0142 µM,CCc1c(F)ccc2cc(O)cc(-c3ncc4c(N5CCC[C@]6(CCO6)C5)nc(OCC5(CN6CCC(F)C6)CC5)nc4c3F)c12 (some centres unmarked) [Compound 41a]
17,> 1 µM,CCc1c(F)ccc2cc(O)cc(-c3ncc4c(N5CCCC(C#N)CC5)nc(OCC5(CN(C)C)CC5)nc4c3F)c12 (centres unmarked) [Compound 42a]
18,0.557 µM,CCc1c(F)ccc2cc(O)cc(-c3ncc4c(N5CCCCCC5)nc(OCC5(CN(C)C)CC5)nc4c3F)c12 [Compound 43a]
19,0.234 µM,CCc1c(F)ccc2cc(O)cc(-c3ncc4c(N5CCCC(O)CC5)nc(OCC5(CN(C)C)CC5)nc4c3F)c12 (centres unmarked) [Compound 44a]
